The NIST ThermoML archive (doi:10.1016/j.tca.2013.03.008)
Numbers after ± are expanded uncertainties.

Experiment: xn = mol fraction of the nth substance listed
Settings: 101 kPa, Liquid; for viscosity: Capillary tube (Ostwald / Ubbelohde) method; for mass density: Vibrating tube method

CCOC(=O)CCl [ethyl chloroethanoate] + CCC(=O)CC
Settings | mass density, 298.15 K [kg/m3] | mass density, 308.15 K [kg/m3] | mass density, 318.15 K [kg/m3] | viscosity, 298.15 K [mPa·s] | viscosity, 308.15 K [mPa·s] | viscosity, 318.15 K [mPa·s]
x2 = 0 | 1144.11 ± 0.45 | 1131.46 ± 0.44 | 1118.74 ± 0.42 | 1.095 ± 0.011 | 0.939 ± 0.009 | 0.815 ± 0.008
x2 = 0.0502 | 1127.54 ± 0.43 | 1115 ± 0.42 | 1102.39 ± 0.41 | 1.05 ± 0.01 | 0.902 ± 0.009 | 0.783 ± 0.008
x2 = 0.0877 | 1115.18 ± 0.42 | 1102.73 ± 0.41 | 1090.21 ± 0.39 | 1.017 ± 0.01 | 0.874 ± 0.009 | 0.76 ± 0.01
x2 = 0.1207 | 1104.29 ± 0.41 | 1091.91 ± 0.4 | 1079.49 ± 0.38 | 0.987 ± 0.01 | 0.85 ± 0.009 | 0.741 ± 0.008
x2 = 0.1692 | 1088.28 ± 0.39 | 1076.05 ± 0.38 | 1063.74 ± 0.37 | 0.944 ± 0.009 | 0.815 ± 0.008 | 0.713 ± 0.007
x2 = 0.2551 | 1059.87 ± 0.37 | 1047.89 ± 0.36 | 1035.82 ± 0.35 | 0.87 ± 0.009 | 0.756 ± 0.008 | 0.666 ± 0.007
x2 = 0.3266 | 1036.16 ± 0.35 | 1024.36 ± 0.34 | 1012.49 ± 0.33 | 0.813 ± 0.008 | 0.71 ± 0.007 | 0.63 ± 0.006
x2 = 0.413 | 1007.44 ± 0.34 | 995.88 ± 0.33 | 984.26 ± 0.33 | 0.75 ± 0.008 | 0.659 ± 0.007 | 0.587 ± 0.006
x2 = 0.4998 | 978.47 ± 0.34 | 967.18 ± 0.34 | 955.81 ± 0.34 | 0.695 ± 0.007 | 0.612 ± 0.006 | 0.548 ± 0.006
x2 = 0.574 | 953.63 ± 0.33 | 942.56 ± 0.33 | 931.39 ± 0.33 | 0.653 ± 0.007 | 0.575 ± 0.006 | 0.517 ± 0.005
x2 = 0.6638 | 923.44 ± 0.32 | 912.62 ± 0.32 | 901.71 ± 0.32 | 0.604 ± 0.006 | 0.533 ± 0.006 | 0.48 ± 0.005
x2 = 0.7475 | 895.2 ± 0.31 | 884.6 ± 0.31 | 873.95 ± 0.31 | 0.562 ± 0.006 | 0.498 ± 0.005 | 0.449 ± 0.005
x2 = 0.827 | 868.26 ± 0.31 | 857.9 ± 0.31 | 847.48 ± 0.31 | 0.522 ± 0.005 | 0.466 ± 0.005 | 0.421 ± 0.005
x2 = 0.9114 | 839.54 ± 0.31 | 829.45 ± 0.31 | 819.27 ± 0.31 | 0.481 ± 0.005 | 0.434 ± 0.005 | 0.391 ± 0.004

CCOC(=O)CCl [ethyl chloroethanoate] + CCC(C)O
Settings | mass density, 298.15 K [kg/m3] | mass density, 308.15 K [kg/m3] | mass density, 318.15 K [kg/m3] | viscosity, 298.15 K [mPa·s] | viscosity, 308.15 K [mPa·s] | viscosity, 318.15 K [mPa·s]
x2 = 0 | 1144.11 ± 0.45 | 1131.46 ± 0.44 | 1118.74 ± 0.42 | 1.095 ± 0.011 | 0.934 ± 0.009 | 0.816 ± 0.008
x2 = 0.1008 | 1111.91 ± 0.42 | 1099.43 ± 0.4 | 1086.98 ± 0.39 | 1.055 ± 0.01 | 0.895 ± 0.009 | 0.778 ± 0.008
x2 = 0.204 | 1078.95 ± 0.39 | 1066.72 ± 0.37 | 1054.42 ± 0.36 | 1.041 ± 0.01 | 0.877 ± 0.009 | 0.755 ± 0.008
x2 = 0.2885 | 1051.67 ± 0.36 | 1039.71 ± 0.35 | 1027.56 ± 0.34 | 1.033 ± 0.01 | 0.875 ± 0.009 | 0.756 ± 0.008
x2 = 0.3625 | 1027.45 ± 0.35 | 1015.7 ± 0.34 | 1003.8 ± 0.33 | 1.048 ± 0.01 | 0.88 ± 0.009 | 0.753 ± 0.008
x2 = 0.45 | 998.34 ± 0.34 | 986.92 ± 0.34 | 975.3 ± 0.33 | 1.107 ± 0.011 | 0.895 ± 0.009 | 0.759 ± 0.008
x2 = 0.5384 | 968.29 ± 0.34 | 957.21 ± 0.34 | 945.94 ± 0.34 | 1.183 ± 0.012 | 0.945 ± 0.01 | 0.791 ± 0.008
x2 = 0.6138 | 942.27 ± 0.33 | 931.52 ± 0.33 | 920.57 ± 0.33 | 1.246 ± 0.013 | 0.987 ± 0.01 | 0.817 ± 0.009
x2 = 0.6906 | 915.31 ± 0.32 | 904.95 ± 0.32 | 894.31 ± 0.32 | 1.332 ± 0.014 | 1.063 ± 0.011 | 0.866 ± 0.009
x2 = 0.7724 | 886.17 ± 0.31 | 876.24 ± 0.31 | 865.99 ± 0.31 | 1.489 ± 0.015 | 1.182 ± 0.012 | 0.947 ± 0.01
x2 = 0.8541 | 856.59 ± 0.31 | 847.12 ± 0.31 | 837.33 ± 0.31 | 1.789 ± 0.019 | 1.367 ± 0.014 | 1.089 ± 0.012
x2 = 0.9197 | 832.49 ± 0.31 | 823.43 ± 0.31 | 814.03 ± 0.31 | 2.183 ± 0.024 | 1.611 ± 0.017 | 1.225 ± 0.013

CCC(=O)CC [pentan-3-one] + CCC(C)O
Settings | mass density, 298.15 K [kg/m3] | mass density, 308.15 K [kg/m3] | mass density, 318.15 K [kg/m3] | viscosity, 298.15 K [mPa·s] | viscosity, 308.15 K [mPa·s] | viscosity, 318.15 K [mPa·s]
x1 = 0.0848 | 803.03 ± 0.31 | 794.48 ± 0.31 | 785.52 ± 0.31 | 2.069 ± 0.022 | 1.539 ± 0.017 | 1.172 ± 0.013
x1 = 0.1511 | 803.42 ± 0.31 | 794.8 ± 0.31 | 785.78 ± 0.31 | 1.602 ± 0.017 | 1.246 ± 0.013 | 0.976 ± 0.01
x1 = 0.2353 | 803.97 ± 0.31 | 795.22 ± 0.31 | 786.14 ± 0.31 | 1.229 ± 0.013 | 0.986 ± 0.01 | 0.802 ± 0.008
x1 = 0.3023 | 804.42 ± 0.31 | 795.58 ± 0.31 | 786.43 ± 0.31 | 1.039 ± 0.011 | 0.854 ± 0.009 | 0.711 ± 0.007
x1 = 0.3793 | 804.94 ± 0.31 | 795.99 ± 0.31 | 786.77 ± 0.31 | 0.879 ± 0.009 | 0.734 ± 0.008 | 0.622 ± 0.007
x1 = 0.4676 | 805.54 ± 0.31 | 796.47 ± 0.31 | 787.16 ± 0.31 | 0.761 ± 0.008 | 0.637 ± 0.007 | 0.55 ± 0.006
x1 = 0.4927 | 805.71 ± 0.31 | 796.61 ± 0.31 | 787.27 ± 0.31 | 0.731 ± 0.008 | 0.612 ± 0.006 | 0.531 ± 0.006
x1 = 0.5536 | 806.12 ± 0.31 | 796.95 ± 0.31 | 787.54 ± 0.31 | 0.657 ± 0.007 | 0.57 ± 0.006 | 0.499 ± 0.005
x1 = 0.6269 | 806.62 ± 0.31 | 797.36 ± 0.31 | 787.87 ± 0.31 | 0.6 ± 0.006 | 0.524 ± 0.006 | 0.461 ± 0.005
x1 = 0.7129 | 807.21 ± 0.31 | 797.84 ± 0.31 | 788.26 ± 0.31 | 0.536 ± 0.006 | 0.482 ± 0.005 | 0.429 ± 0.005
x1 = 0.8104 | 807.89 ± 0.31 | 798.4 ± 0.31 | 788.7 ± 0.31 | 0.494 ± 0.005 | 0.446 ± 0.005 | 0.403 ± 0.004
x1 = 0.9043 | 808.59 ± 0.31 | 798.96 ± 0.31 | 789.15 ± 0.31 | 0.466 ± 0.005 | 0.419 ± 0.005 | 0.378 ± 0.004
x1 = 1 | 809.38 ± 0.31 | 799.55 ± 0.31 | 789.63 ± 0.31 | 0.442 ± 0.005 | 0.398 ± 0.004 | 0.362 ± 0.004
